Source: ChEMBL document CHEMBL1201862, “PubChem BioAssay data set” (2004)
The source made the active and inactive calls.

Tests used:
[1] = cells; assay type: functional, cell-based
[2] = Counterscreen for activators of the function of SWI/SNF related, matrix associated, actin dependent regulator of chromatin, subfamily a, member 2 (SMARCA2, BRM): Luminescence-based cell-based high throughput dose response assay to identify non-selective compounds using the VP16 reporter assay.; assay type: functional
[3] = tested on: INS1; experiment: beta cell apoptosis inhibitors, cytokine rescue, dose response, luminescence, retest (AID 449756); assay type: functional, cell-based; conditions: Rattus norvegicus;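 also: cell death triggered by IL-1 beta plus TNF-alpha plus IFN-gamma mixture; protective hits raise ATP signal compared with cytokine alone wells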
[4] = target: DNA (cytosine-5)-methyltransferase 1 (Homo sapiens, UniProt P26358); experiment: DNMT1 methyltransferase inhibitors, confirmation, biochemical, fluorescent molecular beacon (AID 602386); assay type: functional
[5] = cells; assay type: functional, cell-based; remark: listed apart in the source
[6] = target: SWI/SNF-related matrix-associated actin-dependent regulator of chromatin subfamily A member 2 (Homo sapiens, UniProt P51531); experiment: Luminescence-based cell-based high throughput dose response assay to identify activators of the function of SWI/SNF related, matrix associated, actin dependent regulator of chromatin, subfamily a, member 2 (SMARCA2, BRM).; assay type: functional
[7] = nonselective inhibitors of cellular cAMP signaling, dose response, counter-screen for MC4R biased antagonist project, cell-based, TR-FRET cAMP detection (AID 602305); assay type: functional;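 also: U2OS cells stimulated with forskolin near its EC80 as the cAMP inducer; potency is for inhibition of forskolin-stimulated cAMP signaling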
[8] = target: T1, Heat shock factor protein 1 (Mus musculus, UniProt P38532); experiment: HSF1 potentiators in luciferase reporter cells, confirmation, cell-based, NIH3T3, luminescence, dose retest (AID 435004); assay type: functional;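 also: stress induced by proteasome inhibitor MG132 added 30 min after compound; luciferase reporter driven by HSF1 response element in NIH3T3 cells; actives raise luminescence as potentiators of the MG132 stress response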
T1 sequence (P38532 whole entry): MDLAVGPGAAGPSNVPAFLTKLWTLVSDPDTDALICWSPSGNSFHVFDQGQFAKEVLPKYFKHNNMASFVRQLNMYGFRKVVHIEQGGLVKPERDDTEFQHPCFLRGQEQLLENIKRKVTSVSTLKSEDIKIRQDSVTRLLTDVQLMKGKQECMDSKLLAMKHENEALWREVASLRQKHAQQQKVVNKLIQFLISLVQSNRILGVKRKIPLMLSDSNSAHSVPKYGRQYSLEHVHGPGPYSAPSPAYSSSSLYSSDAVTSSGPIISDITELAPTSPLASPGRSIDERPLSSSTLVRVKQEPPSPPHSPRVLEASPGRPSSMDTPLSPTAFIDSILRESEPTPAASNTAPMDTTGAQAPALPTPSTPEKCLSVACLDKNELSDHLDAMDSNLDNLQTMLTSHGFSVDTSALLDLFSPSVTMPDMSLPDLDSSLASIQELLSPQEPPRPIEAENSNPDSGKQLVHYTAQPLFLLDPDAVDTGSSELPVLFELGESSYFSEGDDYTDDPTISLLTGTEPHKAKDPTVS

[9] = target: Beta-galactosidase (Escherichia coli, UniProt Q8VNN2); experiment: Dose response counterscreen for EBI2 assay utilizing the enzyme, b-galactosidase.; assay type: functional
Beta-galactosidase, sequence (Q8VNN2 whole entry): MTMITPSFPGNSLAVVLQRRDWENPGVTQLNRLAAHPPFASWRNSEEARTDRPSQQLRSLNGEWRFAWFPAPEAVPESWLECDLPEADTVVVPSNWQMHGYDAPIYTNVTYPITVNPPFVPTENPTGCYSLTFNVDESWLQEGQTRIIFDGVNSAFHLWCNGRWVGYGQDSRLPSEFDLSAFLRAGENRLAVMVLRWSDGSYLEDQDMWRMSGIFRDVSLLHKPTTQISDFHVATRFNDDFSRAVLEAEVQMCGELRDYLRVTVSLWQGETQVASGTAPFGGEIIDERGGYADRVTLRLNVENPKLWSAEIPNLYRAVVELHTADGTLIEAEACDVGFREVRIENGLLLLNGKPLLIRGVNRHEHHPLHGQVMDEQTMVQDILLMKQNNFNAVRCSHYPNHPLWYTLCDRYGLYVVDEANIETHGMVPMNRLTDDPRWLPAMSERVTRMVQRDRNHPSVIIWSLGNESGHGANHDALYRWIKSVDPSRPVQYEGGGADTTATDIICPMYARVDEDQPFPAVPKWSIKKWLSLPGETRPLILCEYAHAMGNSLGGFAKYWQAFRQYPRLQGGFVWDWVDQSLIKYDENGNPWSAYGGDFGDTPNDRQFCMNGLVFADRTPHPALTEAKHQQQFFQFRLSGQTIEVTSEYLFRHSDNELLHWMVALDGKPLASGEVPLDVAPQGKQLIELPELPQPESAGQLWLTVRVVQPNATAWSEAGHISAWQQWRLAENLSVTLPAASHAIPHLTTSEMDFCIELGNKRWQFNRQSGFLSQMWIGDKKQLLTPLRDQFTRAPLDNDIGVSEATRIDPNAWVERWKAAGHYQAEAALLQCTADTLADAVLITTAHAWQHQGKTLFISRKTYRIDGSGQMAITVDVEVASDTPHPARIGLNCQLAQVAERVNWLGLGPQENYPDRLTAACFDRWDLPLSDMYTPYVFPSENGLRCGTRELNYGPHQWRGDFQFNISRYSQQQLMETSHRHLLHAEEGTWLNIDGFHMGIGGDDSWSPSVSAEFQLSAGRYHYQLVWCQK

[10] = target: Melanocortin receptor 4 (Homo sapiens, UniProt P32245); experiment: MC4R antagonist potency on cAMP, dose response, cell-based, TR-FRET, biased antagonists (AID 602298); assay type: functional;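 also: antagonist potency against agonist-stimulated cAMP production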
Melanocortin receptor 4, sequence (P32245 whole entry, the tested form may be a part): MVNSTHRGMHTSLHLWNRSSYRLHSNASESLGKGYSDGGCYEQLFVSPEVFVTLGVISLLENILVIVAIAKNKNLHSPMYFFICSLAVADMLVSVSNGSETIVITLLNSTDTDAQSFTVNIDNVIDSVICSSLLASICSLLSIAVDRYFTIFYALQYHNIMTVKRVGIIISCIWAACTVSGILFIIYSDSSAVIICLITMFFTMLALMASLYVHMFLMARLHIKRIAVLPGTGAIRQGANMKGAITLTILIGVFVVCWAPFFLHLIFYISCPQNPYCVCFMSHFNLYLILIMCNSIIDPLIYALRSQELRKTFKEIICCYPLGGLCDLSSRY

[11] = target: T2, Tyrosine-protein phosphatase non-receptor type 22 (Homo sapiens, UniProt Q9Y2R2); experiment: LYP phosphatase inhibition for selectivity, dose response, selectivity assay for LMPTP inhibitor project, biochemical, fluorescence, LYP catalytic domain (AID 652006); assay type: functional; conditions: read-out: IC50_Mean
T2 sequence (Q9Y2R2 whole entry): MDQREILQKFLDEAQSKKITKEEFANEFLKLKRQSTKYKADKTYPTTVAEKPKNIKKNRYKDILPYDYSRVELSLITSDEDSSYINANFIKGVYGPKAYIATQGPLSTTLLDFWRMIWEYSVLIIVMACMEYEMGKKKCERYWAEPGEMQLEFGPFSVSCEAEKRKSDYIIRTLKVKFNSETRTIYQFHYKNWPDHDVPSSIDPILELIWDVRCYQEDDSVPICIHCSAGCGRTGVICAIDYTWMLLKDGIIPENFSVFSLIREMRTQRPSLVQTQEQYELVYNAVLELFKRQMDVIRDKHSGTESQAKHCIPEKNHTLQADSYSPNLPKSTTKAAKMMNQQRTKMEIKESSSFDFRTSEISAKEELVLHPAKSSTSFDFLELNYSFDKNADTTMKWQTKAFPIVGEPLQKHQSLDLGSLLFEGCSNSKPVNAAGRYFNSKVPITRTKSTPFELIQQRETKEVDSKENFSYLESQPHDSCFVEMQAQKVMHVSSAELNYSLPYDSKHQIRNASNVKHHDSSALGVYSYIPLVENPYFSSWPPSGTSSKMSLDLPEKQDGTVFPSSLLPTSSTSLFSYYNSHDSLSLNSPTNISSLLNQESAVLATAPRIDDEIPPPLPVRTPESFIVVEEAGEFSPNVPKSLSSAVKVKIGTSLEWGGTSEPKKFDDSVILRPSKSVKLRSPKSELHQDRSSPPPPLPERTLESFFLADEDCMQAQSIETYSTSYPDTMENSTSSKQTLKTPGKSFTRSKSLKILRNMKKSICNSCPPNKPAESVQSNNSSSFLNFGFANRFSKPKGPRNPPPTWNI

[12] = target: T3, Low molecular weight phosphotyrosine protein phosphatase (Homo sapiens, UniProt P24666); assay type: functional; conditions: read-out: IC50_Mean;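 also: Dose-response confirmation assay measuring inhibition of LMPTP enzyme activity by fluorescence intensity read-out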
T3 sequence (P24666 whole entry): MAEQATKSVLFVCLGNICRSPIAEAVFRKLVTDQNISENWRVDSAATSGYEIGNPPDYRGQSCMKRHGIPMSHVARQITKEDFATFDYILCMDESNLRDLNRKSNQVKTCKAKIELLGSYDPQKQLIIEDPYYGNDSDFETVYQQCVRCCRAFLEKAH

[13] = target: Nuclear receptor subfamily 5 group A member 2 (Homo sapiens, UniProt O00482); assay type: functional, cell-based;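 also: HEK293T cells transfected with LRH-1 and a StAR promoter luciferase reporter; potency for inhibitors that lower LRH-1 driven reporter light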
Nuclear receptor subfamily 5 group A member 2, sequence (O00482 whole entry): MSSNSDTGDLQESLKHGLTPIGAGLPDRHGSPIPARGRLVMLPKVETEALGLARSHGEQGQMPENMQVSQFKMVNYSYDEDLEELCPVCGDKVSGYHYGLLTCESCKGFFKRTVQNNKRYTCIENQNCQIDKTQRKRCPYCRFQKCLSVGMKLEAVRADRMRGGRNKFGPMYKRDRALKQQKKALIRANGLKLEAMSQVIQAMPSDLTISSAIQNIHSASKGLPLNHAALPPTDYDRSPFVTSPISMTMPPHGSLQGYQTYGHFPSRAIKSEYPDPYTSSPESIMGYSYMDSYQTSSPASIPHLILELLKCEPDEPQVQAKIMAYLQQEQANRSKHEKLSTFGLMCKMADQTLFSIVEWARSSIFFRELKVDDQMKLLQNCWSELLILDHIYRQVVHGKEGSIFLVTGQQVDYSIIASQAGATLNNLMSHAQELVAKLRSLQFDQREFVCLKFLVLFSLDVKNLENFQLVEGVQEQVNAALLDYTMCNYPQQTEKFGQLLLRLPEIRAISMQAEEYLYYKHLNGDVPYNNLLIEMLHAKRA

[14] = StAR promoter reporter inhibition counter-screen, dose response, counter-screen for LRH-1 inverse agonist project, cell-based, luminescence, luciferase reporter (AID 651969); assay type: functional
[15] = target: Steroidogenic factor 1 (Homo sapiens, UniProt Q13285); experiment: Counterscreen for inverse agonists of the liver receptor homolog-1 (LRH-1; NR5A2): Luminescence-based cell-based high throughput dose response assay to identify inverse agonists of the Steroidogenic Factor 1 Nuclear Receptor (SF1; NR5A1).; assay type: functional
Steroidogenic factor 1, sequence (Q13285 whole entry): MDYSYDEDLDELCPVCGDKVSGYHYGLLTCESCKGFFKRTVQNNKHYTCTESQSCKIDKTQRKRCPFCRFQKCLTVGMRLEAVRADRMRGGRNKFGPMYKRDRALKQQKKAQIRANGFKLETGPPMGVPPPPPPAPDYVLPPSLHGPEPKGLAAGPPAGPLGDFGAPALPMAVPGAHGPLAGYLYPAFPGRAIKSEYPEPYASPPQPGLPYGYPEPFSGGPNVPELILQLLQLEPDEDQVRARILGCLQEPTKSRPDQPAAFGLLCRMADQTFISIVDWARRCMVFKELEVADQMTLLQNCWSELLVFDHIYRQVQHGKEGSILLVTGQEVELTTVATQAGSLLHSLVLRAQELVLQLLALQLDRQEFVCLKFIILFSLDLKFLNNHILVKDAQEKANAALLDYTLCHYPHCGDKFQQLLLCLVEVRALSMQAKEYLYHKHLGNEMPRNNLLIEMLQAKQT

[16] = target: T4, Interleukin-8 (Homo sapiens, UniProt P10145); experiment: Dose Response confirmation of uHTS small molecule hits for cystic fibrosis induced NFkb Inhibitors in a TNFa-induced IL8 counterscreen.; assay type: functional; conditions: read-out: IC50_Mean
T4 sequence (P10145 whole entry): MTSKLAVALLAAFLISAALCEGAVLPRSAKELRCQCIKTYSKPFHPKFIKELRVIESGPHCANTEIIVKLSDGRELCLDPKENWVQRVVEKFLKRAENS

[17] = target: T5, Rac GTPase-activating protein 1 (Homo sapiens, UniProt Q9H0H5); experiment: MgcRacGAP GTPase-activating activity inhibitors, confirmation, biochemical, ADP Hunter fluorescence, primary and confirmatory (AID 624330); assay type: functional
T5 sequence (Q9H0H5 whole entry): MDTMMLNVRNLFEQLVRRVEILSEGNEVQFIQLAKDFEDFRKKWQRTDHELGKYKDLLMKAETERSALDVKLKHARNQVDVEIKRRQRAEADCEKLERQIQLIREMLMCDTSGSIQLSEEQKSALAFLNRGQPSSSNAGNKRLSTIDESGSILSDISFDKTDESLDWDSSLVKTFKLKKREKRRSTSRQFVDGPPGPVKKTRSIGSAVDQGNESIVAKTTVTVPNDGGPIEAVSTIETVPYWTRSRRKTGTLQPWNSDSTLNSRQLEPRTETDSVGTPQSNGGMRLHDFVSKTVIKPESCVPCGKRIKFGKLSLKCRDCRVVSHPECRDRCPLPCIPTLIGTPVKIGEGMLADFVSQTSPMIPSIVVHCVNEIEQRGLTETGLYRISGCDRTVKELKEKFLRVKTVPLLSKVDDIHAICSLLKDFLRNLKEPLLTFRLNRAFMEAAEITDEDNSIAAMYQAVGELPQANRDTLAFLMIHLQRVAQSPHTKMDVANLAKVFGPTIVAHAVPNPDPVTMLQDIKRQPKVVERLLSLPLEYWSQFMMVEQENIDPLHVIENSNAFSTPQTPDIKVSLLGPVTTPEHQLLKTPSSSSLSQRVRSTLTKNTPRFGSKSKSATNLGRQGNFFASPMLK

[18] = target: T4, Interleukin-8; experiment: Dose Response confirmation of uHTS small molecule hits for cystic fibrosis induced NFkb Inhibitors in a PAF-induced IL8 counterscreen.; assay type: functional; conditions: read-out: IC50_Mean
[19] = target: T6, Aryl hydrocarbon receptor (Homo sapiens, UniProt P35869); conditions: Potency;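 also: confirmatory quantitative high-throughput screen measuring activation of the AhR signaling pathway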
T6 sequence (P35869 whole entry): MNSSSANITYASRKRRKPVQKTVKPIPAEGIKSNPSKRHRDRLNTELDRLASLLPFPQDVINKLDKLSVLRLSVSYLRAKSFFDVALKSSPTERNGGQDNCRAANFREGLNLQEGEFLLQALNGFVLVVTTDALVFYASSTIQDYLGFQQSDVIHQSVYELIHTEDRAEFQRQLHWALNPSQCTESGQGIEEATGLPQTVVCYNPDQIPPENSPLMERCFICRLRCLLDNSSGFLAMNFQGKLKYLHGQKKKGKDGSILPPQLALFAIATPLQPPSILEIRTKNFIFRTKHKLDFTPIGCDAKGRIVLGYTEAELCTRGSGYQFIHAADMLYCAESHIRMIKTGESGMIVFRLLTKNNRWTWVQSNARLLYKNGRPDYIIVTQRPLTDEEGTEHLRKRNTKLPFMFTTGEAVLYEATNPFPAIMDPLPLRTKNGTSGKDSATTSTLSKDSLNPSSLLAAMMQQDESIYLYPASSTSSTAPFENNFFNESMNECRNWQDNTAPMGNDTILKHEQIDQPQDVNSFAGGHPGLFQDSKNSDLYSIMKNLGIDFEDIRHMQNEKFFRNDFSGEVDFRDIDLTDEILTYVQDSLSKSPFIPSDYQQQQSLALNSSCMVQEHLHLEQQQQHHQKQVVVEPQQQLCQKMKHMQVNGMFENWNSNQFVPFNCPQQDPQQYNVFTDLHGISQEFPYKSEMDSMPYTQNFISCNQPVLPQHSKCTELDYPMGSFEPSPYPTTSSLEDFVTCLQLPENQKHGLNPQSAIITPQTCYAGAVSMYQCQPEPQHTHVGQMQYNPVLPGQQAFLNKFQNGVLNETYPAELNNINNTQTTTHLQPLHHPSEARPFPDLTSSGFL

[20] = cells; assay type: functional
[21] = Vero E6 cell cytotoxicity, dose response, cytotoxicity control for non-replicating M. tuberculosis project, secondary assay (AID 492998); assay type: functional, VeroE6; conditions: Vero C1008
[22] = THP-1 cell cytotoxicity, dose response, cytotoxicity control for non-replicating M. tuberculosis project (AID 489025); assay type: functional
[23] = AlphaScreen signal interference compounds, dose response, artefact control for ARNT-TACC3 interaction inhibitor project, biochemical, luminescence, cherry-pick (AID 651705); assay type: functional;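 also: AlphaScreen bead proximity signal that flags compounds interfering with the detection technology; potency reflects signal decrease which marks the compound as an assay artifact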
[24] = target: Tyrosine-protein phosphatase non-receptor type 11 (Homo sapiens, UniProt Q06124); experiment: SHP2 phosphatase inhibition, dose response, selectivity assay for STEP inhibitor project, biochemical (AID 602367); assay type: functional; conditions: read-out: IC50_Mean
Tyrosine-protein phosphatase non-receptor type 11, sequence (Q06124 whole entry): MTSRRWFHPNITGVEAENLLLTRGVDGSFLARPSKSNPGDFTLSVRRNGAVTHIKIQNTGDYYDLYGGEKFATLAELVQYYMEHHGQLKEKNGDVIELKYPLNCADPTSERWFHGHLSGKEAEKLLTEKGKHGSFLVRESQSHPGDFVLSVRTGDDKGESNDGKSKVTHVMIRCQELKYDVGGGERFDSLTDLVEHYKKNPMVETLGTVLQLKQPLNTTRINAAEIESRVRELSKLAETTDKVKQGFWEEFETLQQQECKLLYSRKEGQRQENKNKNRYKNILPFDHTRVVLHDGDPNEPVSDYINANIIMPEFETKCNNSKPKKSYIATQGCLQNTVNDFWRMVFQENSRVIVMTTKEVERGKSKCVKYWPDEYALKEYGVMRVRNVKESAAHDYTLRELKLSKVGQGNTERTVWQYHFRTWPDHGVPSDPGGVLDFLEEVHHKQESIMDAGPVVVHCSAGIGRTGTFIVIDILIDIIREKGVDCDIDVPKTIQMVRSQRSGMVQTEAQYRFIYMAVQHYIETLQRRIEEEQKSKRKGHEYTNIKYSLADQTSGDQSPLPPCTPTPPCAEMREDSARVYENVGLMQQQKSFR

[25] = target: Tyrosine-protein phosphatase non-receptor type 5 (Homo sapiens, UniProt P54829); experiment: STEP phosphatase inhibitors, confirmation, biochemical, fluorescence intensity, uHTS hits (AID 602372); assay type: functional; conditions: read-out: IC50_Mean
Tyrosine-protein phosphatase non-receptor type 5, sequence (P54829 whole entry): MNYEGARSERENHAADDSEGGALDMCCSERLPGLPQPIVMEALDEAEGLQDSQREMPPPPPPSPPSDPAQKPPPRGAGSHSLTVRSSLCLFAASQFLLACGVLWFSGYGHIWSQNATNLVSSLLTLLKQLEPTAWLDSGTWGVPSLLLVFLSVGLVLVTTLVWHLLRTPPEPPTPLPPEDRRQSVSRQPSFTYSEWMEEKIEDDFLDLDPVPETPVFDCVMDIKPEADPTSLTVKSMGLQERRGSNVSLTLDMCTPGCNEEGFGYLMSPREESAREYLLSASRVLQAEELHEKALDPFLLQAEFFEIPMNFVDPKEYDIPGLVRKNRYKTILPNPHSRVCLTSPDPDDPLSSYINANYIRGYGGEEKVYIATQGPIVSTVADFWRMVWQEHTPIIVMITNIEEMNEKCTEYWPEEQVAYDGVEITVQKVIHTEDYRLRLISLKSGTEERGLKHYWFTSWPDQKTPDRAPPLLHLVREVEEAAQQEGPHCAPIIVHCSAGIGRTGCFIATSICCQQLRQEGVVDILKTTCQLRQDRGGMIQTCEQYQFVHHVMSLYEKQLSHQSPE

[26] = target: Dual specificity protein phosphatase 3 (Homo sapiens, UniProt P51452); experiment: VHR phosphatase inhibition, dose response, selectivity assay for STEP inhibitor project, biochemical (AID 602374); assay type: functional; conditions: read-out: IC50_Mean
[27] = target: Mitochondrial peptide methionine sulfoxide reductase (Bos taurus, UniProt P54149); assay type: functional;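 also: absorbance read-out, biochemical high-throughput dose-response screen for MsrA inhibitors, confirmatory; recombinant bovine MsrA coupled to E. coli TrxB with NADPH and selenocystamine; potency is for inhibitors of MsrA activity on DMSO substrate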
[28] = target: Potassium voltage-gated channel subfamily KQT member 2 (Rattus norvegicus, UniProt O88943); experiment: KCNQ2 potassium channel inhibitors, dose response, cell-based, automated electrophysiology, set II, rat KCNQ2 (AID 588637); assay type: functional
[29] = target: Mitogen-activated protein kinase 12 (Homo sapiens, UniProt P53778); assay type: functional;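 also: measured as one member of a kinome-wide kinase profiling panel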
Mitogen-activated protein kinase 12, sequence (P53778 whole entry): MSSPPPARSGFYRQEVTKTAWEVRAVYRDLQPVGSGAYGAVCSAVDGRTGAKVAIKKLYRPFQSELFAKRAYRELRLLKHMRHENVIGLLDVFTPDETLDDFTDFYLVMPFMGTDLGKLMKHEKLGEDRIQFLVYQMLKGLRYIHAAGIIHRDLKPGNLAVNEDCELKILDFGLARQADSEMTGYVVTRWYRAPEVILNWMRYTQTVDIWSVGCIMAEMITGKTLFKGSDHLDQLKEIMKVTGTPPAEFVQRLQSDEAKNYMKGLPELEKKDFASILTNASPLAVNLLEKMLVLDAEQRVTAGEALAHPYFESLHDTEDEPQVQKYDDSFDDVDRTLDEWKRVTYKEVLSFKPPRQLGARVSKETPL

[30] = target: Cell division cycle 7-related protein kinase (Homo sapiens, UniProt O00311); assay type: functional;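 also: value obtained from a kinome-wide kinase panel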
Cell division cycle 7-related protein kinase, sequence (O00311 whole entry): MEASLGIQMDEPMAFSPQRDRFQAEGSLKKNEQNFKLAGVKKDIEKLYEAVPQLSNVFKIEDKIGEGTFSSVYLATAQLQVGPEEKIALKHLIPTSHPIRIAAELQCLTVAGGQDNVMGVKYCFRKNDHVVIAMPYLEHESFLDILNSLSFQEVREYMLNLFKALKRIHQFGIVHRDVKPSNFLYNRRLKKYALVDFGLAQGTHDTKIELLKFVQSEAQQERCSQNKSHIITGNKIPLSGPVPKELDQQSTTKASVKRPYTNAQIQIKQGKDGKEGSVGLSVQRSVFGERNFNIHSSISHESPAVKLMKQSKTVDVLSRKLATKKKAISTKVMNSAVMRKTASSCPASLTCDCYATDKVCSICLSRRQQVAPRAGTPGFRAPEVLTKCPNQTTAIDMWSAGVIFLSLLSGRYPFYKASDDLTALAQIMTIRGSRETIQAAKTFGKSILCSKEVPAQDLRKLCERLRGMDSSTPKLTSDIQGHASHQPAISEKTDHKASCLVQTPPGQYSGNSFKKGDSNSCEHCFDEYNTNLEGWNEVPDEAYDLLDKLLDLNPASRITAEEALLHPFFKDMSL

[31] = target: Testis-specific serine/threonine-protein kinase 2 (Homo sapiens, UniProt Q96PF2); assay type: functional;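 also: part of the Navigating the Kinome panel, target entry STK22B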
Testis-specific serine/threonine-protein kinase 2, sequence (Q96PF2 whole entry): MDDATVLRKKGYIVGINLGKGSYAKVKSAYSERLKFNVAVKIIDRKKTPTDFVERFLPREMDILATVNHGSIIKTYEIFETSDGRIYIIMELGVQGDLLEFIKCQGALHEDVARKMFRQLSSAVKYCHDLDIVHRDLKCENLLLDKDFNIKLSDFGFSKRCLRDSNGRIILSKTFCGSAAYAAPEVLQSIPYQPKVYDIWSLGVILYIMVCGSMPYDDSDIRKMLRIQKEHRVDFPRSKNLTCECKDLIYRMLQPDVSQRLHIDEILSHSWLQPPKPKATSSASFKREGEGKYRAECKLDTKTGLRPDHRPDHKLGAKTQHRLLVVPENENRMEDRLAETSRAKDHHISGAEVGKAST

SMILES: CCN(CC)CCOc1ccc2c(c1)C(=NO)c1cc(OCCN(CC)CC)ccc1-2
- EC50 [1]: > 350 µM (not active)
- EC50 [2]: > 91.1 µM (inactive)
- AC50 [3]: 5.22 µM (active)
- IC50 [4]: > 99 µM (inactive)
- EC50 [5]: > 350 µM (not active)
- EC50 [6]: 11.4 µM (inactive)

SMILES: CCOC(=O)c1ccc(/N=c2\sc(C(=O)OC)cc(=O)n2-c2ccc(C(=O)OCC)cc2)cc1
- IC50 [7]: > 64.6 µM (inactive)
- EC50 [8]: 3.42 µM (active)
- IC50 [9]: > 80 µM (inactive)
- IC50 [10]: > 64.6 µM (inactive)

SMILES: CC1C(=O)N(Cc2cn(Cc3ccco3)nn2)CCS(=O)(=O)N1Cc1ccc(-c2cccnc2)cc1 (stereo unspecified)
- IC50 [11]: 26.6 µM (inactive)
- IC50 [12]: 15.2 µM (active)

SMILES: CC(=O)c1ccc(OC(C)C(=O)OCC(=O)NCCc2ccccc2)cc1 (stereo unspecified)
- IC50 [13]: 9.39 µM (active)
- IC50 [14]: 35.9 µM (inactive)
- IC50 [15]: 8.19 µM (active)

SMILES: COc1ccc(-c2c[nH]nc2-c2ccc(O)cc2O)cc1
- IC50 [16]: 2.62 µM (active)
- IC50 [17]: 43.9 µM (active)
- IC50 [18]: 6.94 µM (active)

SMILES: Cc1ccccc1C(=O)Nc1cccc(OC(C)C)c1 [MEPRONIL]
- AC50 [19]: 28.2 µM (inconclusive)

SMILES: c1ccc(-c2nc3ccccn3c2NC2CCCC2)nc1
- IC50 [20]: 4.27 µM (active)
- CC50 [21]: > 20 µM (active)
- CC50 [22]: 28.8 µM (active)
- AC50 [23]: 87.6 µM (active)

SMILES: CCOC(=O)N1CCC(N(CCN(C)C)C(=S)Nc2ccc(Oc3ccccc3)cc2)CC1
- IC50 [24]: 3.17 µM (active)
- IC50 [25]: 6.93 µM (active)
- IC50 [26]: 0.5 µM (active)

SMILES: O=C(NCCc1ccccc1)c1ccc(=O)oc1
- IC50 [27]: 144 µM (inactive)

SMILES: Cc1ccc2nc(-c3ccccc3)cc(C(=O)N3CC(C)OC(C)C3)c2c1 (stereo unspecified)
- IC50 [28]: 0.0681 µM (active)

SMILES: C[S+]([O-])c1ccc(-c2nc(-c3ccncc3)c(-c3ccc(F)cc3)[nH]2)cc1 (stereo unspecified) [SB-203580]
- Ki [29]: > 6.31 µM (inactive)
- Ki [30]: > 1.26 µM (inactive)
- Ki [31]: > 1.58 µM (inactive)
